Reference: ChEMBL document CHEMBL5725801, “Fused heterocyclic compounds as CaM kinase inhibitors” (2018)

Test: CaMKII Cell-Based Activity: CaMKII activity in neonatal rat ventricular myocytes (NRVM) was measured by monitoring the phosphorylation level of phospholamban using high-content imaging. NRVMs were plated in a clear bottom 384-well plate in medium supplemented with 10% fetal bovine serum (FBS) and incubated at 37° C., 5% CO2 overnight. The medium was changed to a serum-free medium and compounds were dosed to the cells. The cells were incubated at 37° C., 5% CO2 for 4 hours and were then treated with 100 nM ATX-II (Alomone Labs) to activate CaMKII. 10 minutes after the addition of ATX-II, the cells were fixed with 4% formaldehyde followed by permeabilization with 0.1% triton X100. The fixed cells were stained with an anti-phospho-phospholamban primary antibody (Santa Cruz Biotechnology) and an Alexa488-labeled anti-rabbit IgG secondary antibody (Life Technologies Corporation) as well as Hoechst 33342 (Life Technologies Corporation). The cells were imaged using an ArrayScan VTI (Cellomics) and analyzed for cells containing a positive fluorescent signal at 485 nm, reported as % responder. The % responders were plotted against the compound concentration to determine the compounds EC50.

SMILES | EC50 [nM]
CCN(CC)[C@@H](C)CNC(=O)c1cc(-c2cnn3ccc(-c4cccs4)nc23)nc(N2CC[C@@H](N)C2)c1 | 68.8
CCN(CC)[C@@H](C)CNC(=O)c1cc(O[C@H]2CCOC2)nc(-c2cnn3ccc(-c4cccs4)nc23)c1 | 57.1
COC1CN(c2cc(C(=O)N3[C@H]4CCNC[C@@H]3CC4)cc(-c3cnn4ccc(-c5cccs5)nc34)n2)C1 | 148
COC1CN(c2cc(C(=O)N3CC[C@H](N)C3)cc(-c3cnn4ccc(-c5cccs5)nc34)n2)C1 | 154
CCN(CC)[C@@H](C)CNC(=O)c1cc(-c2cnn3ccc(-c4cccs4)nc23)nc(N2CC[C@H](C(=O)NC)C2)c1 | 69.3
CCN(CC)[C@@H](C)CNC(=O)c1cc(O[C@@H]2CCOC2)nc(-c2cnn3ccc(-c4cccs4)nc23)c1 | 66.2
CCN1C[C@@H](F)C[C@H]1CNC(=O)c1ccnc(-c2cnn3ccc(-c4cccs4)nc23)c1 | 53.4
CCN(CC)[C@@H](C)CNC(=O)c1cc(OCC2(C)COC2)nc(-c2cnn3ccc(-c4cccs4)nc23)c1 | 55.3
CC(C)(O)CNc1cc(C(=O)N2CC3CCC(C2)NC3)cc(-c2cnn3ccc(-c4cccs4)nc23)n1 (centres undefined) | 406
CCN(CC)[C@@H](C)CNC(=O)c1cccc(-c2cnn3ccc(-c4cccs4)nc23)n1 | 103
CN(CCn1ccnc1)c1cc(C(=O)N2CC3CCC(C2)NC3)cc(-c2cnn3ccc(-c4cccs4)nc23)n1 (centres undefined) | 449
COC1CN(c2cc(C(=O)N3C4CC[C@@H]3CCNC4)cc(-c3cnn4ccc(-c5ccccc5)nc34)n2)C1 | 272
CCN(CC)[C@@H](C)CNC(=O)c1cc(-c2cnn3ccc(-c4cccs4)nc23)nc(N2CC[C@H]2C(=O)NCCO)c1 | 84.9
CCN(CC)[C@@H](C)CNC(=O)c1cc(OCc2cccnc2)nc(-c2cnn3ccc(-c4cccs4)nc23)c1 | 56.1
CCN(CC)[C@@H](C)CNC(=O)c1cc(-c2cnn3ccc(-c4cccs4)nc23)nc(N2CC[C@H](N)C2)c1 | 68.7
CCN(CC)[C@@H](C)CNC(=O)c1cc(-c2cnn3ccc(-c4cccs4)nc23)nc(N2CCC[C@@H]2C(=O)NC)c1 | 815
O=C(c1cc(-c2cnn3ccc(-c4cccs4)nc23)nc(N2CCN(C3COC3)CC2)c1)N1CC2CCC(C1)NC2 (centres undefined) | 81.8
COC1CN(c2cc(C(=O)N3CC[C@H](N)C3)cc(-c3cnn4ccc(-c5ccccc5)nc34)n2)C1 | 42.9
CCN(CC)[C@@H](C)CNC(=O)c1cc(-c2cnn3ccc(-c4ccccc4)nc23)nc(N2CC[C@H]2C(=O)NC)c1 | 146
CCN(CC)[C@@H](C)CNC(=O)c1cc(OCCc2cnccn2)nc(-c2cnn3ccc(-c4cccs4)nc23)c1 | 64.2
CCN(CC)[C@@H](C)CNC(=O)c1cc(OC[C@H](C)OC)nc(-c2cnn3ccc(-c4cccs4)nc23)c1 | 48.4

SMILES | EC50 [nM]
CCN(CC)[C@@H](CO)CNC(=O)c1cc(-c2cnn3ccc(-c4cccs4)nc23)nc(N2CC[C@H]2C(=O)NC)c1 | 72.9
CCN(CC)[C@@H](C)CNC(=O)c1cc(-c2cnn3ccc(-c4cccs4)nc23)nc(N2CC[C@@H](C(=O)NC)C2)c1 | 46.9
CNC(=O)[C@@H]1CCN1c1cc(C(=O)NC[C@H](C)N)cc(-c2cnn3ccc(-c4cccs4)nc23)n1 | 6740
CC[C@@H](CNC(=O)c1cc(-c2cnn3ccc(-c4cccs4)nc23)nc(N2CC[C@H]2C(=O)NC)c1)N(CC)CCO | 57.6
CCN(CC)[C@@H](C)CNC(=O)c1cc(-c2cnn3ccc(-c4cccs4)nc23)nc(N2CC[C@H]2C(=O)NCC#N)c1 | 65.3
CCN(CC)[C@@H](C)CNC(=O)c1cc(-c2cnn3ccc(-c4cccs4)nc23)nc(N2CC[C@H]2C(=O)O)c1 | 89.3
CCN(CC)[C@@H](C)CNC(=O)c1cc(-c2cnn3ccc(-c4cccs4)nc23)nc(N2CC[C@H]2C(=O)NCCOC)c1 | 47.1
CCN(CC)[C@@H](C)CNC(=O)c1cc(-c2cnn3ccc(-c4cccs4)nc23)nc(N2CCNC(=O)C2)c1 | 96
CCN(CC)[C@@H](C)CNC(=O)c1cc(-c2cnn3ccc(-c4cccs4)nc23)nc(N2CC[C@H]2C(=O)N2CC(O)C2)c1 | 152
CCN(CC)[C@@H](C)CNC(=O)c1cc(-c2cnn3ccc(-c4cccs4)nc23)nc(N2CC[C@H]2C(=O)N2CC(S(C)(=O)=O)C2)c1 | 281
CCN(CC)[C@@H](C)CNC(=O)c1cc(OCc2ccc[n+]([O-])c2)nc(-c2cnn3ccc(-c4cccs4)nc23)c1 | 68.5
COC1CN(c2cc(C(=O)N3CC4CCC(C3)NC4)cc(-c3cnn4ccc(-c5cccs5)nc34)n2)C1 (centres undefined) | 63.6
COCCNc1cc(C(=O)N2CC3CCC(C2)NC3)cc(-c2cnn3ccc(-c4cccs4)nc23)n1 (centres undefined) | 124
CCN[C@@H](C)CNC(=O)c1cc(-c2cnn3ccc(-c4cccs4)nc23)nc(N2CC[C@H]2C(=O)NC)c1 | 654
CCN(CC)[C@@H](C)CNC(=O)c1cc(-c2cnn3ccc(-c4cccs4)nc23)nc(-c2cnn3ccc(-c4cccs4)nc23)c1 | 794
CCN(CC)[C@@H](C)CNC(=O)c1cc(OCCN(C)C)nc(-c2cnn3ccc(-c4cccs4)nc23)c1 | 115
CCN(CC)[C@@H](C)CNC(=O)c1cc(OCCN2CCOCC2)nc(-c2cnn3ccc(-c4cccs4)nc23)c1 | 86.8
CCN(CC)[C@@H](C)CNC(=O)c1cc(-c2c[nH]nc2C)nc(-c2cnn3ccc(-c4cccs4)nc23)c1 | 70.4
CCN(CC)[C@@H](C)CNC(=O)c1cc(-c2cnn3ccc(-c4cccs4)nc23)nc(N2CC[C@H]2C(=O)N2CCS(=O)(=O)CC2)c1 | 118
COC1CN(c2cc(C(=O)N3CC4CCC(C3)NC4)cc(-c3cnn4ccc(-c5ccccc5)nc34)n2)C1 (centres undefined) | 95.6
CCN(CC)[C@@H](C)CNC(=O)c1cc(-c2cnn3ccc(-c4cccs4)nc23)nc(N2CCC[C@H]2C(=O)NC)c1 | 114

Now those with a lower EC50, led by results:

EC50 [nM] | SMILES
38.4 | CCN(CC)[C@@H](C)CNC(=O)c1cc(OCC(C)(C)O)nc(-c2cnn3ccc(-c4cccs4)nc23)c1
37.8 | CCN(CC)[C@@H](C)CNC(=O)c1cc(OCCCOC)nc(-c2cnn3ccc(-c4cccs4)nc23)c1
37.8 | CC[C@@H](CNC(=O)c1cc(-c2cnn3ccc(-c4cccs4)nc23)nc(N2CC[C@H]2C(=O)NC)c1)N(CC)CC (single isomer, unassigned)
36.8 | CCC(CNC(=O)c1cc(-c2cnn3ccc(-c4cccs4)nc23)nc(N2CC[C@H]2C(=O)NC)c1)N(CC)CC (some centres undefined)
36 | CCN(CC)[C@@H](C)CNC(=O)c1cc(-c2cnn3ccc(-c4cccs4)nc23)nc(N2CC[C@H]2C(N)=O)c1
34.7 | CCN(CC)CCNC(=O)c1cc(-c2cnn3ccc(-c4cccs4)nc23)nc(N2CC[C@H]2C(=O)NC)c1
34.3 | CC[C@H](CNC(=O)c1cc(-c2cnn3ccc(-c4cccs4)nc23)nc(N2CC[C@H]2C(=O)NC)c1)N(CC)CC (single isomer, unassigned)
32.7 | CCN(CC)[C@@H](C)CNC(=O)c1cc(-c2cnn3ccc(-c4ccns4)nc23)nc(N2CC[C@H]2C(=O)NC)c1
32 | CCN(CC)[C@@H](C)CNC(=O)c1cc(OCCOC)nc(-c2cnn3ccc(-c4cccs4)nc23)c1
29.7 | CCN(CC)[C@@H](C)CNC(=O)c1cc(-c2cnoc2)nc(-c2cnn3ccc(-c4cccs4)nc23)c1
27.8 | CCN(CC)[C@@H](C)CNC(=O)c1cc(OC[C@H]2CCCO2)nc(-c2cnn3ccc(-c4cccs4)nc23)c1
25.6 | CCN(CC)[C@@H](C)CNC(=O)c1cc(-c2cnn3ccc(-c4cccs4)nc23)nc(N2CC[C@H]2C(=O)N(C)O)c1
22 | CCN(CC)[C@@H](C)CNC(=O)c1cncc(-c2cnn3ccc(-c4cccs4)nc23)c1
20.3 | CCN(CC)[C@@H](C)CNC(=O)c1cc(-c2c[nH]nc2C(F)(F)F)nc(-c2cnn3ccc(-c4cccs4)nc23)c1
14.5 | CCN(CC)[C@@H](C)CNC(=O)c1cc(-c2cc[nH]n2)nc(-c2cnn3ccc(-c4cccs4)nc23)c1
13.6 | CCCN(CC)[C@@H](C)CNC(=O)c1cc(-c2cnn3ccc(-c4cccs4)nc23)nc(N2CC[C@H]2C(=O)NC)c1
13.5 | CCN(CC)[C@@H](C)CNC(=O)c1cc(-c2cn[nH]c2)nc(-c2cnn3ccc(-c4cccs4)nc23)c1
12.3 | CCN(CC)[C@@H](C)CNC(=O)c1cc(-c2cnn(C3COC3)c2)nc(-c2cnn3ccc(-c4cccs4)nc23)c1
10 | CCN(CC)[C@@H](C)CNC(=O)c1cc(-c2cnn3ccc(-c4ccc(F)s4)nc23)nc(N2CC[C@H]2C(=O)NC)c1
9.37 | CCN(CC)[C@@H](C)CNC(=O)c1cc(-c2c(C)n[nH]c2C)nc(-c2cnn3ccc(-c4cccs4)nc23)c1
8.24 | CCN(CC)[C@@H](C)CNC(=O)c1cc(-c2cnn(C)c2)nc(-c2cnn3ccc(-c4cccs4)nc23)c1

Test: CaMKII delta Biochemical Assay: The biochemical activity of recombinant CaMKIIδ was measured by monitoring the phosphorylation of a target peptide using Homogenous Time Resolved Fluorescence (HTRF) technology from CisBio Bioassays. 10 pM […] (Life Technologie Corporation) was incubated for 1 hour with 110 nM calmodulin (EMD Millipore), 1 μM Biotin-STK1 (target peptide, CisBio Bioassays) and 12 μM ATP (Sigma-Aldrich) in a buffer containing 20 mM Hepes pH7.2, 10 mM MgCl2 and 1 mM CaCl2 as well as the compound to be tested or DMSO at a final concentration of 0.6%. The reaction was stopped with the addition of the detection buffer (containing EDTA) with Eu-cryptate labeled anti-phospho-STK1 antibody (CisBio Bioassays) and 125 nM XL665 labeled streptavidin (CisBio Bioassays).

SMILES | IC50 [nM]
CCN1C[C@@H](F)C[C@H]1CNC(=O)c1ccnc(-c2cnn3ccc(-c4cccs4)nc23)c1 | 7.07
